Reference: patent US8426429B2, “2-amino-quinazoline derivatives useful as inhibitors of β-secretase (BACE)” (Jansssen Pharmaceutica N.V., priority 2004, dated 2013)

Target: T1, β-secretase (BACE) (Homo sapiens, UniProt P56817)
T1 construct: purchased Panvera
Test: BACE FS1 % Inhibition Assay
Type: biochemical
Settings: FS1 substrate
How it was run: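 Percent inhibition per compound concentration was referenced to vehicle-treated enzyme and no-enzyme wells. Enzyme at a 4 μg/mL working stock plus compound was mixed for 20 min at room temperature before the FS1 substrate (300 μg/mL working stock) was added for a 1 h room-temperature reaction.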

T1 sequence (P56817 46-501): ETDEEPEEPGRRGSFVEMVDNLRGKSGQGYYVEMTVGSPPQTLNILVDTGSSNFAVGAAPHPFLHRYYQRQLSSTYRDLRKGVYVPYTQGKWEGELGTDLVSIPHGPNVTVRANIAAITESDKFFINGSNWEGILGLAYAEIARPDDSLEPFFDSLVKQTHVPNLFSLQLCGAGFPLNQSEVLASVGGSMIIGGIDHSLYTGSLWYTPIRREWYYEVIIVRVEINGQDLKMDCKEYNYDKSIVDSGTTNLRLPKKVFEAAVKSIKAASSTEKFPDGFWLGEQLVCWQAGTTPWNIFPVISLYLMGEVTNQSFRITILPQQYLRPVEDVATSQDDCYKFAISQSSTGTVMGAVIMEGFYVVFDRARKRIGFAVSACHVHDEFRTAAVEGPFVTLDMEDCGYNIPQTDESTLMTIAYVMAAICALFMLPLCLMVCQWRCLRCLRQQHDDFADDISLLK

Structure (SMILES)	% Inhibition (FS) (0.3 μM compound)	% Inhibition (FS) (1 μM compound)	% Inhibition (FS) (3 μM compound)
CCCC(=O)NCCN1Cc2cc(-c3ccc4ccccc4c3)ccc2N=C1N [Compound 666]	37%	<30%	<30%
CC(C)(C)C(=O)NCCN1Cc2cc(-c3ccc4ccccc4c3)ccc2N=C1N [Compound 667]	33%	<30%	<30%
CC(C)CCC(=O)NCCN1Cc2cc(-c3ccc4ccccc4c3)ccc2N=C1N [Compound 668]	<30%	<30%	<30%
CCCCC(CC)C(=O)NCCN1Cc2cc(-c3ccc4ccccc4c3)ccc2N=C1N (stereo not drawn) [Compound 669]	<30%	<30%	32%
NC1=Nc2ccc(-c3cnc4ccccc4c3)cc2CN1CCNC(=O)C1CCC1 [Compound 670]	<30%	<30%	44%
NC1=Nc2ccc(-c3cnc4ccccc4c3)cc2CN1CCNC(=O)C1CCCC1 [Compound 671]	<30%	30%	<30%
NC1=Nc2ccc(-c3cnc4ccccc4c3)cc2CN1CCNC(=O)C12CC3CC(CC(C3)C1)C2 [Compound 672]	<30%	<30%	<30%
CCCC(=O)NCCN1Cc2cc(-c3cnc4ccccc4c3)ccc2N=C1N [Compound 673]	34%	<30%	<30%
CC(C)(C)C(=O)NCCN1Cc2cc(-c3cnc4ccccc4c3)ccc2N=C1N [Compound 674]	36%	<30%	41%
CC(C)CCC(=O)NCCN1Cc2cc(-c3cnc4ccccc4c3)ccc2N=C1N [Compound 675]	35%	<30%	<30%
CCCCC(CC)C(=O)NCCN1Cc2cc(-c3cnc4ccccc4c3)ccc2N=C1N (stereo not drawn) [Compound 676]	33%	<30%	44%
Cc1ccccc1-c1ccc2c(c1)CN(CCNC(=O)CCC(F)(F)F)C(N)=N2 [Compound 678]	51%	88%	99%
Cc1ccccc1-c1ccc2c(c1)CN(CCNC(=O)CC(C)C(F)(F)F)C(N)=N2 (stereo not drawn) [Compound 679]	78%	99%	–
NC1=Nc2ccc(-c3ccccc3F)cc2CN1CCNC(=O)CCC(F)(F)F [Compound 680]	42%	75%	90%
CC(CC(=O)NCCN1Cc2cc(-c3ccccc3F)ccc2N=C1N)C(F)(F)F (stereo not drawn) [Compound 681]	67%	100%	–
NC1=Nc2ccc(-c3ccccc3Cl)cc2CN1CCNC(=O)CCC(F)(F)F [Compound 682]	39%	77%	97%

Results, then the compound that gave them:

% Inhibition (FS) (0.3 μM compound)	% Inhibition (FS) (1 μM compound)	% Inhibition (FS) (3 μM compound)	Structure (SMILES)
64%	86%	–	CC(CC(=O)NCCN1Cc2cc(-c3ccccc3Cl)ccc2N=C1N)C(F)(F)F (stereo not drawn) [Compound 683]
33%	38%	78%	NC1=Nc2ccc(-c3ccccc3)cc2CN1CCNC(=O)CCC(F)(F)F [Compound 684]
50%	90%	–	CC(CC(=O)NCCN1Cc2cc(-c3ccccc3)ccc2N=C1N)C(F)(F)F (stereo not drawn) [Compound 685]
<30%	73%	80%	NC1=Nc2ccc(-c3ccc4ccccc4c3)cc2CN1CCNC(=O)CCC(F)(F)F [Compound 686]
<30%	50%	87%	NC1=Nc2ccc(-c3ccccc3F)cc2CN1CCNC(=O)C1CCOCC1 [Compound 687]
<30%	36%	81%	NC1=Nc2ccc(-c3ccccc3F)cc2CN1CCNC(=O)C1CCC(C(F)(F)F)CC1 (stereo not drawn) [Compound 688]
33%	82%	–	NC1=Nc2ccc(-c3ccccc3Cl)cc2CN1CCNC(=O)C1CCOCC1 [Compound 689]
<30%	<30%	52%	NC1=Nc2ccc(-c3ccccc3Cl)cc2CN1CCNC(=O)C1CCC(C(F)(F)F)CC1 (stereo not drawn) [Compound 690]
<30%	<30%	51%	CC(=O)N1CCC(C(=O)NCCN2Cc3cc(-c4ccccc4Cl)ccc3N=C2N)CC1 [Compound 691]
<30%	<30%	84%	Cc1ccccc1-c1ccc2c(c1)CN(CCNC(=O)C1CCC(C(F)(F)F)CC1)C(N)=N2 (stereo not drawn) [Compound 694]
<30%	<30%	54%	CC(=O)N1CCC(C(=O)NCCN2Cc3cc(-c4ccccc4C)ccc3N=C2N)CC1 [Compound 695]
<30%	72%	–	COC1CCCC(C(=O)NCCN2Cc3cc(-c4ccccc4C)ccc3N=C2N)C1 (stereo not drawn) [Compound 696]
<30%	<30%	63%	COc1ccccc1-c1ccc2c(c1)CN(CCNC(=O)C1CCOCC1)C(N)=N2 [Compound 697]
<30%	<30%	64%	COc1ccccc1-c1ccc2c(c1)CN(CCNC(=O)C1CCC(C(F)(F)F)CC1)C(N)=N2 (stereo not drawn) [Compound 698]
31%	64%	93%	COc1cccc(F)c1-c1ccc2c(c1)CN(CCNC(=O)C1CCOCC1)C(N)=N2 [Compound 699]
<30%	36%	85%	COc1cccc(F)c1-c1ccc2c(c1)CN(CCNC(=O)C1CCC(C(F)(F)F)CC1)C(N)=N2 (stereo not drawn) [Compound 700]
<30%	<30%	54%	NC1=Nc2ccc(-c3ccccc3)cc2CN1CCNC(=O)C1CCC(C(F)(F)F)CC1 (stereo not drawn) [Compound 701]
<30%	<30%	<30%	CC(=O)N1CCC(C(=O)NCCN2Cc3cc(-c4ccccc4)ccc3N=C2N)CC1 [Compound 702]
<30%	46%	83%	COC1CCCC(C(=O)NCCN2Cc3cc(-c4ccccc4)ccc3N=C2N)C1 (stereo not drawn) [Compound 703]
<30%	<30%	<30%	NC1=Nc2ccc(C3=CCCCC3)cc2CN1CCNC(=O)C1CCC(C(F)(F)F)CC1 (stereo not drawn) [Compound 704]
<30%	<30%	<30%	CC(=O)N1CCC(C(=O)NCCN2Cc3cc(C4=CCCCC4)ccc3N=C2N)CC1 [Compound 705]
<30%	<30%	<30%	COC1CCCC(C(=O)NCCN2Cc3cc(C4=CCCC4)ccc3N=C2N)C1 (stereo not drawn) [Compound 706]
